Reference: ChEMBL document CHEMBL2040793, “Thieno[3,2-c]pyran-4-one based novel small molecules: their synthesis, crystal structure analysis and in vitro evaluation as potential anticancer agents” (Bioorg Med Chem Lett, 2012)
pIC50: −log10 of the molar value.

Experiments:
K562 [1] = assay: Growth inhibition of human K562 cells at 10 uM after 24 hrs by MTT assay; assay type: functional; conditions: K562, 24 h, read-out: GI
MDA-MB-231 = assay: Growth inhibition of human MDA-MB-231 cells at 10 uM after 24 hrs by MTT assay; assay type: functional; conditions: MDA-MB-231, 24 h, read-out: GI
[2] = Growth inhibition of human HEK293 cells at 10 uM after 24 hrs by MTT assay; assay type: cell-based; conditions: read-out: GI
HepG2 [3] = assay: Growth inhibition of human HepG2 cells at 10 uM after 24 hrs by MTT assay; assay type: functional; conditions: HepG2, 24 h, read-out: GI
K562 [4] = assay: Cytotoxicity against human K562 cells after 24 hrs by MTT assay; assay type: functional, cell-based; conditions: K562, 24 h
Saccharomyces cerevisiae = assay: Inhibition of yeast SIRT2 assessed as derepression of Ura3 gene at 50 uM in presence of 5-fluoroorotic acid
HepG2 [5] = assay: Cytotoxicity against human HepG2 cells after 24 hrs by MTT assay; assay type: functional, cell-based; conditions: HepG2, 24 h
HepG2 [6] = assay: Ratio of doxorubicin IC50 to compound IC50 for human HepG2 cells; assay type: functional

inhibition (Saccharomyces cerevisiae) [%] | SMILES | inhibition of growth at 10 µM (K562 [1]) [%] | inhibition of growth at 10 µM (MDA-MB-231) [%] | inhibition at 24 h, 10 µM [2] [%] | inhibition of growth at 10 µM (HepG2 [3]) [%] | pIC50 (K562 [4]) | pIC50 (HepG2 [5]) | Ratio IC50 (HepG2 [6])
– | O=c1oc(-c2ccccc2)c(-c2ccccc2)c2sc3c(c12)CCCCC3 | 24 | 7.42 | 0.01 | 35.9 | – | – | –
– | O=c1oc(-c2ccccc2)c(-c2ccccc2)c2sc3c(c12)CCC3 | 26.7 | 12.4 | 4 | 13.4 | – | – | –
– | O=c1oc(-c2ccccc2)c(I)c2sc3c(c12)CCCCC3 | 30.3 | 40.1 | 0.23 | 12 | – | – | –
– | CCCCCC#Cc1c(-c2ccccc2)oc(=O)c2c3c(sc12)CCCCC3 | 12.3 | 41.9 | 0.44 | 24.8 | – | – | –
– | Cc1ccc(NC(=O)c2ccc(CN3CCN(C)CC3)cc2)cc1Nc1nccc(-c2cccnc2)n1 [IMATINIB] | – | – | – | – | 7.00 | – | –
– | O=c1oc(-c2ccccc2)c(I)c2sc3c(c12)CCCC3 | 38.1 | 22.7 | 0.6 | 0 | – | – | –
– | O=c1oc(-c2ccccc2)c(-c2ccc(O)cc2)c2sc3c(c12)CCCC3 | 9.85 | 22.9 | 0.5 | 23 | – | – | –
– | CC(C)(O)C#Cc1c(-c2ccccc2)oc(=O)c2c3c(sc12)CCCCC3 | 9.32 | 21.6 | 4.2 | 25 | – | – | –
– | CCOC(=O)/C=C/c1c(-c2ccccc2)oc(=O)c2c3c(sc12)CCCCC3 | 27.4 | 42.6 | 1.11 | 12 | – | – | –
30 | CCCCC#Cc1c(-c2ccccc2)oc(=O)c2c3c(sc12)CCCCC3 | 66.4 | 25.2 | 3.2 | 24.1 | 5.64 | – | –
– | O=c1oc(-c2ccccc2)c(C#Cc2ccccc2)c2sc3c(c12)CCCCC3 | 13.9 | 34.7 | 1.7 | 20.1 | – | – | –
– | CC(C)(C)OC(=O)N1CCc2c(sc3c(I)c(-c4ccccc4)oc(=O)c23)C1 | 8.34 | 27.5 | 9.03 | 15.5 | – | – | –
30 | Cc1ccc(-c2oc(=O)c3c4c(sc3c2I)CCCC4)cc1 | 64.2 | 32.5 | 0 | 68.2 | 5.63 | 5.62 | >2
